Experimental data reported in patent publication US20150335692A1, “ORAL PREPARATION, INJECTION PREPARATION, EXTERNAL SKIN PREPARATION AND COSMETIC METHOD FOR PREVENTING OR IMPROVING WRINKLES” (Shiseido Company, Ltd., priority 2008, published 2015).

Key:
fine wrinkle model = assay: Anti-wrinkle effects in fine wrinkle model (visual wrinkle score); format: in vivo; details: 1 mM in 50% aqueous ethanol, 100 μl applied to skin three times a week for two weeks; scored two weeks later; higher scores indicate deeper wrinkles
Experimental: The anti-wrinkle effects of the heparanase inhibitor, suramin, were assessed using a fine wrinkle model (Non-Patent Document 2).
Suramin was dissolved in 50% aqueous ethanol solution to a concentration of 1 mM and applied in 100 μl aliquots to skin of the fine wrinkle model three times a week for a period of two weeks during which time fine wrinkles are formed. A 50% aqueous ethanol solution was used as a solvent control.
The formation of wrinkles two weeks later was scored by visual evaluation. Wrinkle formation was scored in increments of 0.5 based on evaluation criteria consisting of: no wrinkles: 0, slight wrinkles: 1, obvious wrinkles: 2 and deep wrinkles: 3. Higher scores indicate deeper wrinkles. In contrast to the mean value of the scores of the solvent control being 0.78, that for suramin was 0.31, thereby indicating significant wrinkle inhibitory effects as compared with the solvent control. Namely, the application of suramin at 1 mM significant inhibited wrinkle formation as compared with 50% ethanol applied as a solvent control. […]
The formation of wrinkles two weeks later was scored by visual evaluation. Wrinkle formation was scored in increments of 0.5 based on evaluation criteria consisting of: no wrinkles: 0, slight wrinkles: 1, obvious wrinkles: 2 and deep wrinkles: 3. […]

[1] = test system: basement membrane heparan sulfate chains; assay: Immunostaining of epidermal basement membrane heparan sulfate chains in skin of fine wrinkle model; format: in vivo; details: skin coated with 1 mM compound versus 50% ethanol solvent control
Excerpt: Next, heparan sulfate chains were immunostained for the skin after 2 days, 1 week and 2 weeks, and the staining results are shown in FIG. 4. Although staining of basement membrane heparan sulfate chains decreased from 2 days to 1 week in skin of the solvent control, stainability of basement membrane heparan sulfate chains was protected by application of suramin.
Next, heparan sulfate chains and perlecan core protein in the skin were immunostained, and the staining results are shown in FIG. 6. Although staining of basement membrane heparan sulfate chains decreased considerably for the solvent control, stainability of basement membrane heparan sulfate chains was protected in the 1-[4-(1H-benzoimidazol-2-yl)-phenyl]-3-[4-(1H-benzoimidazol-2-yl)-phenyl]-urea application group.

HT1080 cells = assay: Secondary evaluation: wound healing assay using HT1080 cells; format: cell-based; details: HT1080 cells, 1, 10, 100 μM, DMSO control
Excerpt: (§1) As will be described in detail in the following examples, primary evaluation of heparanase activity can be carried out by, for example, immobilizing biotinylated heparan sulfate in a 96-well plate, allowing the heparanase to act in the presence of a pharmaceutical preparation or herbal medicine, and evaluating the activity of heparanase as the amount of the decrease in biotinylated heparan sulfate by allowing peroxidase-labeled avidin to act thereon and developing the resulting color. […] Secondary evaluation can be carried out by using HT1080 cells expressing heparanase. When HT1080 cells are scratched after having been cultured to confluency, cells are known to migrate in a heparanase activity-dependent manner (see Ishida, K., et al., Mol. Cancer Ther., 2004, 3(9): 1069-1077 (Non-Patent Document 4)). Therefore, heparanase inhibitory activity can be evaluated on the basis of the degree of migration (recovery) at the scratched site by adding an evaluation reagent.
HT1080 cells were inoculated into a 6-well plate at 500,000 cells/well, and the medium was replaced with that containing each drug 24 hours later followed by scratching in the vertical direction with a 1000 μL tip. Micrographs were taken 6 hours later and changes at the scratched site were observed. […] DMSO was allowed to act as a control instead of the candidate drugs.

heparanase = biological target: T1, heparanase (Homo sapiens, UniProt Q9Y251); assay: Primary evaluation: heparanase activity inhibition, A431 cell extract on biotinylated heparan sulfate-immobilized plate; format: biochemical; details: 2 hours at 37° C., DMSO control
T1 construct: the resulting supernatant was used as a cell extract; endogenous in cells; host or cells: A431 cells (lysate supernatant)
T1 sequence (Q9Y251 158-543 limits assumed): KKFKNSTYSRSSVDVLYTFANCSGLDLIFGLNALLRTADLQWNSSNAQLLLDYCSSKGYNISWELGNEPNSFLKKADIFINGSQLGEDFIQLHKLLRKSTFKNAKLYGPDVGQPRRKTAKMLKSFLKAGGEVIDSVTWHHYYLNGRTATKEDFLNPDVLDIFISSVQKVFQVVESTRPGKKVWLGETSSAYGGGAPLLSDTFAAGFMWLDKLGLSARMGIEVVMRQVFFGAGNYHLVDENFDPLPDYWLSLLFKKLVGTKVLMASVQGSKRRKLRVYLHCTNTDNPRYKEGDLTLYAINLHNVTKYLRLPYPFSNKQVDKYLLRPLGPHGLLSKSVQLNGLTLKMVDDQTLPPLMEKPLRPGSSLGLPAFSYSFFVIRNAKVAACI
T1 sequence (Q9Y251 36-109 limits assumed): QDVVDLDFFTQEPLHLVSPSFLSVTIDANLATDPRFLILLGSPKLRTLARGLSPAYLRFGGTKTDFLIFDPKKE
Excerpt: as §1, with “When HT1080 cells are scratched after having been cultured to confluency, cells are known to migrate in a heparanase activity-dependent manner (see Ishida, K., et al., Mol. Cancer Ther., 2004, 3(9): 1069-1077 (Non-Patent Document 4)).” left out
A431 cells (invasive human epithelial carcinoma cells) were cultured in DMEM medium containing 10% serum. […] The amount of protein in the cell extract was measured with a BCA Protein Assay Kit (Pierce, CA46141). […]
Heparanase activity was calculated from a calibration curve of the A431 cell extract, and inhibition rate (%) was indicated as a relative value to a reference (control) to which the cell extract was not added. […]
The plant extracts were evaluated for heparanase inhibitory effects in accordance with the aforementioned primary and secondary evaluation methods using sample solutions of the plant extracts instead of 4-(1H-benzoimidazol-2-yl)-phenylamine.

Row | IC50 (heparanase) [µM] | SMILES | mean value of wrinkle formation scores (visual evaluation; 0 no wrinkles to 3 deep wrinkles) (fine wrinkle model) | stainability of basement membrane heparan sulfate chains (immunostaining) [1] | cell migration activity at scratched site (HT1080 cells)
1 |  | O=C(Nc1ccc(-c2nc3ccccc3[nH]2)cc1)Nc1ccc(-c2nc3ccccc3[nH]2)cc1 [1-[4-(1H-benzoimidazol-2-yl)-phenyl]-3-[4-(1H-benzoimidazol-2-yl)-phenyl]-urea] | 0.36 | protected | 
2 | 256 | Nc1ccc(-c2nc3ccccc3[nH]2)cc1 [4-(1H-benzoimidazol-2-yl)-phenylamine] |  |  | decreased in a concentration-dependent manner
3 |  | Cc1ccc(C(=O)Nc2ccc(S(=O)(=O)O)c3cc(S(=O)(=O)O)cc(S(=O)(=O)O)c23)cc1NC(=O)c1cccc(NC(=O)Nc2cccc(C(=O)Nc3cc(C(=O)Nc4ccc(S(=O)(=O)O)c5cc(S(=O)(=O)O)cc(S(=O)(=O)O)c45)ccc3C)c2)c1 [suramin] | 0.31 | protected | 
